# Key:
# [1] = test system: Vero E6 cells
# [2] = test system: SARS-CoV-2; conditions: 72 h
# [3] = biological target: SARS-CoV-2 S protein (Severe acute respiratory syndrome coronavirus 2, UniProt P0DTC2); assay: cell-based; conditions: HEK-293T, read-out: IC90, inhibition of S-mediated fusion
smiles,measurement,setting,value
CC[C@H](C)[C@H](NC(=O)[C@H](C)NC(=O)[C@H](CCC(=O)O)NC(=O)[C@H](CCC(=O)O)NC(=O)[C@H](CC(C)C)NC(=O)[C@H](CCCCN)NC(=O)[C@H](CCCCN)NC(=O)[C@H](CCSC)NC(=O)[C@H](CCC(=O)O)NC(=O)[C@H](Cc1ccc(O)cc1)NC(=O)[C@H](CCC(=O)O)NC(=O)[C@H](CC(C)C)NC(=O)[C@H](CC(=O)O)NC(=O)[C@H](CC(C)C)NC(=O)[C@H](Cc1ccccc1)NC(=O)[C@@H](NC(=O)[C@@H](NC(=O)[C@H](CC(N)=O)NC(=O)[C@@H](NC(=O)[C@H](CCC(N)=O)NC(=O)[C@H](CC(=O)O)NC(=O)[C@H](CC(C)C)NC(=O)[C@H](CO)NC(C)=O)[C@@H](C)CC)C(C)C)[C@@H](C)O)C(=O)N[C@@H](CCCCN)C(=O)N[C@@H](CCCCN)C(=O)N[C@@H](CC(C)C)C(=O)N[C@@H](CCC(=O)O)C(=O)N[C@@H](CCC(=O)O)C(=O)N[C@@H](CO)C(=O)N[C@@H](Cc1ccc(O)cc1)C(=O)N[C@H](C(=O)N[C@@H](CC(=O)O)C(=O)N[C@@H](CC(C)C)C(=O)N[C@@H](CCCCN)C(=O)N[C@@H](CCC(=O)O)C(=O)N[C@@H](CC(C)C)C(=O)NCC(=O)N[C@@H](CO)C(=O)NCC(=O)N[C@@H](CO)C(=O)NCC(=O)N[C@@H](CSCC(=O)NCCOCCOCCOCCOCCC(=O)O[C@H]1CC[C@@]2(C)C(=CC[C@H]3[C@@H]4CC[C@H]([C@H](C)CCCC(C)C)[C@@]4(C)CC[C@@H]32)C1)C(N)=O)[C@@H](C)CC [EK1 lipopeptide],toxicity (MTT assay),[1],< 20%
same,IC50,[2],~0.08 µM
same,IC90,[3],> 0.9 µM
